Calls of active or inactive are those of the source. The rule behind the calls is not given here.

For the experiment, the target named is Chaperone protein DnaK (Escherichia coli (strain K12)) (UniProt P0A6Y8). The experiment can be described thus: E. coli DnaK SBD ligand binding – biophysical, NMR, chaperone (AID 1033). The note with it: Purified DnaK SBD.
Chaperone protein DnaK (Escherichia coli (strain K12)), sequence (P0A6Y8 whole entry, looked up): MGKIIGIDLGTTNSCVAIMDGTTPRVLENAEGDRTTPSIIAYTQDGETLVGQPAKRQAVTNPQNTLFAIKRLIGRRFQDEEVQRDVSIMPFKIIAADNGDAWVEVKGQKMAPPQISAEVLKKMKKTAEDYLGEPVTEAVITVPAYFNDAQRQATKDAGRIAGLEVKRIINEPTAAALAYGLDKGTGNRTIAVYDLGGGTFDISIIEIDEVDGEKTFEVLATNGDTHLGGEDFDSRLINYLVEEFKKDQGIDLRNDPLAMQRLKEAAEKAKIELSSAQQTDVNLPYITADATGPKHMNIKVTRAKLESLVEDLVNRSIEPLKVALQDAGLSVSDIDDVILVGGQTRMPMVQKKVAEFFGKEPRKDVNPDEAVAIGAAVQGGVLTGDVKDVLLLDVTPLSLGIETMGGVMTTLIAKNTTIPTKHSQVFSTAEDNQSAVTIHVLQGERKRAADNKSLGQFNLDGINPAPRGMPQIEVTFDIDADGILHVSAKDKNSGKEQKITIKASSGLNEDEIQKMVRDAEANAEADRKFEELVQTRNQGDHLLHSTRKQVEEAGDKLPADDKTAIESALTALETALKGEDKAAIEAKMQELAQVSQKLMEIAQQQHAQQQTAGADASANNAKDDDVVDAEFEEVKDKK
One may read the Kd as a measure of binding affinity in units of concentration. With `Cc1nnc(N2CCc3ccccc3C2)[nH]c1=O`, the Kd was > 4 mM (inactive). The value for `Nc1ccc2c(c1)OCCO2` was > 4 mM (inactive); that for `CS(C)=C1C(=O)NC(=O)N(c2ccccc2)C1=O` was > 4 mM (inactive); that for `COc1ccc(-c2coc3cc(O)ccc3c2=O)c(O)c1O` was > 4 mM (inactive).

Take `Cc1cn2c(-c3cccnc3)nnc2s1`: the Kd is > 4 mM (inactive). The value for `O=C(Nc1ccccc1[N+](=O)[O-])c1ccc(=O)[nH]n1` was > 4 mM (inactive); that for `O=c1cc(-c2ccc(O)cc2)oc2cc(O[C@@H]3O[C@H](CO)[C@@H](O)[C@H](O)[C@H]3O[C@@H]3OC[C@](O)(CO)[C@H]3O)cc(O)c12` was > 4 mM (inactive); that for `Cn1cnnc1SCC(=O)Nc1nccs1` was > 4 mM (inactive). As for `FC(F)(F)c1nnc2ccc(N3CCOCC3)nn12`, the figure is > 4 mM (inactive). The value for `N#Cc1ccccc1CSc1ccccn1` was > 4 mM (inactive); that for `Cc1c(/C=N\n2cnnc2)c2ccccc2n1C` was > 4 mM (inactive). Regarding `COC(=O)c1ccc2snnc2c1`, the Kd was > 4 mM (inactive).

`Nc1nsc(-c2ccccc2)n1`: the Kd was > 4 mM (inactive).

Regarding `CSc1cc(C)[nH]c(=O)n1`, the Kd is > 4 mM (inactive).

For the compound `NC(=O)c1sc2ccccc2c1Cl`, the Kd is > 4 mM (inactive).

As for `O=P1(O)c2ccccc2Nc2ccccc21`, the Kd was > 4 mM (inactive).

Consider `CC(C(N)=O)N1C(=O)c2ccccc2C1=O` (stereo not given), for which the Kd is > 4 mM (inactive). Consider `CC(=O)N1CN(C(C)=O)CN(C(C)=O)C1`, for which the Kd is > 4 mM (inactive). As for `Oc1cc(O)c2c(c1)O[C@H](c1cc(O)c(O)c(O)c1)[C@H](O)C2`, the figure is > 4 mM (inactive). The value for `CSc1nc(C)c(Oc2ccccc2)c(=O)n1C` was > 4 mM (inactive); that for `CSc1nc(NC(C)C)nc(N2CCOCC2)n1` was > 4 mM (inactive). As to `COCc1nc(-c2cc(Br)ccc2OC)no1`, the Kd was > 4 mM (inactive).

On to `Cc1cc(=O)cc(C)n1-c1ccccc1N`, for which the Kd was > 4 mM (inactive). The value for `Nc1ccccc1C(=O)N1CCNC(=O)C1` was > 4 mM (inactive); that for `COC(=O)[C@@H]1OC(=O)[C@H]2O[C@@]23[C@@]1(C)CCC1[C@@]2(C)CCC(=O)C(C)(C)C2C[C@@H](OC(C)=O)[C@]13C` (stereo not given in full) was > 4 mM (inactive).

In the case of `O=Cc1c(N2CCOCC2)nc2ccccn2c1=O`, the Kd is > 4 mM (inactive). As for `CC(C)NC1CS(=O)(=O)CC1O` (stereo not given), the figure is > 4 mM (inactive); as for `Cc1ccc(CNC(=O)c2ccc([N+](=O)[O-])o2)cc1`, less than 0.2 mM; as for `CCNC(=S)N1CCCC(C(N)=O)C1` (stereo not given), > 4 mM (inactive). The value for `NC(=O)COc1ccccc1O` was > 4 mM (inactive).

As to `COc1cc2c(cc1OC)[C@@H]1C(=O)c3ccc(OC)c(CC=C(C)C)c3O[C@@H]1CO2`, the Kd was > 4 mM (inactive).

Take `O=[N+]([O-])c1cccc(-c2c[n+](=O)c3c(n2[O-])CCC3)c1`: the Kd is > 4 mM (inactive). The value for `CC(=O)N1CC2(C)CN(C(C)=O)CC(C)(C1)C2` was > 4 mM (inactive). The value for `C[C@@H]1C(=O)O[C@H]2[C@H]1CC[C@@]1(C)C=CC(=O)[C@@]3(C)O[C@@]213` was > 4 mM (inactive); that for `COc1cc(C)c2c(c1C=O)Oc1c(c(C)c(O)c3c1C(O)OC3=O)OC2=O` (stereo not given) was > 4 mM (inactive). The value for `CC(=O)C1=C(O)C(=O)NC1c1ccccc1` (stereo not given) was > 4 mM (inactive); that for `OCCCc1nc2ccccc2[nH]1` was > 4 mM (inactive).

For the compound `O=C(O)CNS(=O)(=O)c1cccs1`, the Kd is > 4 mM (inactive). As for `O=C1CS/C(=N/N=C2CCCC2)N1`, the figure is > 4 mM (inactive); as for `O=C(O)c1cccc2c1OCC2`, > 4 mM (inactive).

`O=C1CCCC(=O)N1Cc1ccco1`: the Kd is > 4 mM (inactive). As for `CC1=C(C(N)=O)C(c2ccccc2)NC(=O)N1` (stereo not given), the figure is > 4 mM (inactive); as for `Nc1ccc(-c2cn3c(n2)SCC3)cc1`, > 4 mM (inactive).

Consider `OCc1ccccc1N1CCOCC1`, for which the Kd was > 4 mM (inactive). As to `Cc1cc(NC(=O)CSc2ccnc(=O)[nH]2)no1`, the Kd was > 4 mM (inactive). As for `O=c1c2ccccc2nc2n1CCCCN2`, the figure is > 4 mM (inactive); as for `COC(=O)c1ccc(/C=C2/NC(=S)NC2=O)cc1`, > 4 mM (inactive); as for `O=c1[nH]c(O)c(C=NC2CC2)c(=O)[nH]1`, > 4 mM (inactive). The value for `CNC(=O)Oc1ccc2c(c1)[C@]1(C)CCN(C)[C@@H]1N2C` was > 4 mM (inactive); that for `O=C(OCc1c(Cl)cccc1Cl)c1cnccn1` was > 4 mM (inactive); that for `CN(C)C(=O)c1ccccc1-c1ccccc1` was > 4 mM (inactive). The value for `O=C(Nc1cnccn1)c1ccncc1` was > 4 mM (inactive); that for `CC(=O)c1c(O)c(C)c(O)c2c1OC1=CC(=O)C(C(C)=O)C(=O)C12C` (stereo not given) was > 4 mM (inactive). On to `Nc1cccc(-n2cccc2)c1`, for which the Kd was > 4 mM (inactive).

Regarding `CC(C)[C@@H]1CC[C@@H](C)CC1=O`, the Kd was > 4 mM (inactive). `CC(=O)Nc1nc(C)c(C(C)=O)s1`: the Kd was > 4 mM (inactive). As for `Cc1ncc(C(=O)O)c(-c2ccccc2)n1`, the figure is > 4 mM (inactive); as for `O=c1ccc2ccc(O)cc2o1`, > 4 mM (inactive). As to `COC(=O)CC1SC(=O)NC1=O` (stereo not given), the Kd is > 4 mM (inactive).

As for `COC1(C)CCC2OC2(C)CCC2C1CC2(C)C` (stereo not given), the Kd was > 4 mM (inactive). As for `Cn1c(=O)c2cn3ncccc3c2n(C)c1=O`, the figure is > 4 mM (inactive); as for `O=C(O)C1Cc2c([nH]c3ccccc23)CN1` (stereo not given), > 4 mM (inactive). The value for `O=C1NC(=S)NC(=O)C1=Cc1ccccc1O` was > 4 mM (inactive). As for `Oc1cc(O)c2c(c1)O[C@H](c1ccc(O)c(O)c1)[C@@H](O)C2`, the figure is > 4 mM (inactive); as for `Cc1ccccc1NC(=O)CSc1ccnc(=O)[nH]1`, > 4 mM (inactive); as for `O=C(CSc1nnc2ccccn12)N1CCOCC1`, > 4 mM (inactive). As for `Nc1ccc2[nH]ccc2c1`, the Kd is > 4 mM (inactive). As for `CC(C)C(=O)NC(=S)N1CCOCC1`, the figure is > 4 mM (inactive); as for `COc1cccc(-c2cc(=O)c3cc(OC)ccc3o2)c1`, > 4 mM (inactive). As for `COC(=O)Cn1c2ccccc2c2nc(C)sc21`, the figure is > 4 mM (inactive); as for `O=c1cc(O)nc(SCc2ccccc2)[nH]1`, > 4 mM (inactive). As for `CCOC(=O)c1csc(C)n1`, the figure is > 4 mM (inactive); as for `OCCCc1nc2ccc(C(F)(F)F)cc2[nH]1`, > 4 mM (inactive). With `Cc1onc(-c2ccccc2)c1CN`, the Kd is > 4 mM (inactive). The value for `O=[N+]([O-])c1cccc(CN2CCC(O)CC2)c1` was > 4 mM (inactive); that for `Cc1cc(C(=O)Nc2cccnc2)no1` was > 4 mM (inactive); that for `COC(=O)CSc1ncnc2c(C)csc12` was > 4 mM (inactive). The value for `Cc1nnc(SCc2ccon2)n1-c1ccccc1` was > 4 mM (inactive); that for `C=C(C)[C@H]1Cc2c(ccc3c2O[C@@H]2COc4cc(OC)c(OC)cc4[C@@H]2C3=O)O1` was > 4 mM (inactive); that for `CC(=O)Nc1cc(C(N)=O)cc(C(N)=O)c1` was > 4 mM (inactive). The value for `Cn1nnc2cc(C(=O)NC3CCCCC3)ccc21` was > 4 mM (inactive). As for `CN1C(=O)C2C=CC1C1C(=O)N(c3ccccc3)C(=O)C21` (stereo not given), the Kd is > 4 mM (inactive). For the compound `Cc1nc(-c2cc(CO)no2)cs1`, the Kd was > 4 mM (inactive).

For the compound `CC(CCC(=O)O)[C@H]1CCC2C3CC[C@@H]4C[C@H](O)CC[C@]4(C)C3CC[C@@]21C` (stereo not given in full), the Kd was > 4 mM (inactive).

Take `O=C(Nc1ccc(Cl)cn1)c1cnn2cccnc12`: the Kd is > 4 mM (inactive). The value for `O=C(O)C1CC(=O)N(Cc2ccc(F)cc2)C1` (stereo not given) was > 4 mM (inactive); that for `NC(=O)C1CCN(c2ncnc(N)c2[N+](=O)[O-])CC1` was > 4 mM (inactive); that for `Cc1ccc(C(=O)N2CCC(C(=O)O)CC2)cc1` was > 4 mM (inactive).

`NS(=O)(=O)c1ccc(NC(=O)c2cccs2)cc1`: the Kd is > 4 mM (inactive). The value for `c1csc(-c2nn[nH]n2)c1` was > 4 mM (inactive); that for `CCCc1nc2ccccc2c2nc(N)nn12` was > 4 mM (inactive); that for `O=C(Nc1nc2c(s1)CCCC2)c1cccnc1` was > 4 mM (inactive). As for `NC(=O)C1CCN(C(=S)Nc2ccccc2)CC1`, the figure is > 4 mM (inactive); as for `NC(=O)CSc1ccc(-c2ccccc2)nn1`, > 4 mM (inactive). The value for `COC(CC(=O)O)c1nc2ccccc2s1` (stereo not given) was > 4 mM (inactive); that for `CN(C)N1C(=O)C2CCCCC2C1=O` (stereo not given) was > 4 mM (inactive); that for `CCOc1ccccc1C(=O)NC1=NCCS1` was > 4 mM (inactive).

`CC(=O)c1cc2c(cc1O)OC(C)(C)C=C2`: the Kd was > 4 mM (inactive).

Turning to `Nc1[nH]c(=S)ncc1S(=O)(=O)c1ccccc1`, the Kd was > 4 mM (inactive).

For `NC1=NCc2ccccc21`, the Kd was > 4 mM (inactive). As for `c1cc(C(N2CCOCC2)N2CCOCC2)ccn1`, the figure is > 4 mM (inactive).

As to `COC(=O)c1ccc(NC(=O)CC2NCCNC2=O)cc1` (stereo not given), the Kd was > 4 mM (inactive).

As for `CC(=O)Oc1ccc(O)cc1`, the Kd was > 4 mM (inactive).

For the compound `Cc1c(-c2ccc(F)cc2)[n+](=O)c2c(n1[O-])CCC2`, the Kd was > 4 mM (inactive). The value for `NCc1nnnn1-c1ccccc1` was > 4 mM (inactive).

The values above are taken from PubChem BioAssay AID1033 (Sanford-Burnham Center for Chemical Genomics, 2008).
